{"source": "patent EP0211354A2", "about": "“Nucleosides and their use as antineoplastic agents” (MERRELL DOW PHARMACEUTICALS INC., priority 1985, dated 1987)", "key": {"[1]": {"tested_on": "Hela Cells", "test": "Growth of Hela cells in culture (cell count after 72 hours)", "format": "cell-based", "method": "Hela cells (1 × 10⁵/35 mm dish) were plated and incubated at 37°C in a CO₂ (5%) incubator. Media containing different dilutions of MDL 27,069 were added after overnight incubation. At the end of 72 hours, the cells were collected by trypsinization and counted using a coulter counter. *All cells were killed."}, "[2]": {"tested_on": "L1210 mouse leukemia", "test": "Antitumor activity against L1210 mouse leukemia (survival time)", "format": "in vivo", "settings": "for CURES: cured = surviving more than 30 days", "method": "1 × 10⁵ L1210 leukemia cells per animal were injected i.p. on day 0. Treatment with the drug was started on day 1. The compound was dissolved in sterile water and administered i.p. at the doses indicated from day 1 to day 9 once daily. Therapeutic effect of the compound was determined by determining the survival time of the treated group in comparison with control group as follows: [formula] *Animals surviving for more than 30 days are considered cured."}, "[3]": {"settings": "0,01 mg/kg i.p. once daily day 1 to day 9"}, "[4]": {"settings": "0.25 mg/kg i.p. once daily day 1 to day 9"}, "[5]": {"settings": "0.5 mg/kg i.p. once daily day 1 to day 9"}, "[6]": {"settings": "1.0 mg/kg i.p. once daily day 1 to day 9"}}, "note": "Marks after values point to notes of the source that are not given here.", "data": [{"smiles": "Nc1ccn([C@@H]2O[C@H](CO)[C@@H](O)C2(F)F)c(=O)n1", "note": "[MDL 27,069, 2'-desoxy-2',2'-difluorocytidine]", "values": [{"measurement": "Cell Number", "setting": "[1]; 0.00062 μg/ml", "value": "2.0 X10^5"}, {"measurement": "Cell Number", "setting": "[1]; 0.00125 μg/ml", "value": "1.17 X10^5"}, {"measurement": "Cell Number", "setting": "[1]; 0.0025 μg/ml", "value": "0.51 X10^5"}, {"measurement": "Cell Number", "setting": "[1]; 0.005 μg/ml", "value": "0.36 X10^5"}, {"measurement": "Cell Number", "setting": "[1]; 0.01 μg/ml, *All cells were killed", "value": "0* X10^5"}, {"measurement": "inhibition at 0.00062 µg/mL", "setting": "[1]; Homo sapiens, 0.00062 μg/ml", "value": 48, "unit": "%"}, {"measurement": "inhibition at 0.00125 µg/mL", "setting": "[1]; Homo sapiens, 0.00125 μg/ml", "value": 70, "unit": "%"}, {"measurement": "inhibition at 0.0025 µg/mL", "setting": "[1]; Homo sapiens, 0.0025 μg/ml", "value": 87, "unit": "%"}, {"measurement": "inhibition at 0.005 µg/mL", "setting": "[1]; Homo sapiens, 0.005 μg/ml", "value": 91, "unit": "%"}, {"measurement": "inhibition at 0.01 µg/mL", "setting": "[1]; Homo sapiens, 0.01 μg/ml", "value": 100, "unit": "%"}, {"measurement": "MEAN SURVIVAL TIME", "setting": "[2]; [3]", "value": 13.25, "unit": "days"}, {"measurement": "o/o T/C", "setting": "[2]; [3]", "value": 189, "unit": "o/o"}, {"measurement": "CURES", "setting": "[2]; [3]", "value": "0/5"}, {"measurement": "MEAN SURVIVAL TIME", "setting": "[2]; [4]", "value": 13.40, "unit": "days"}, {"measurement": "o/o T/C", "setting": "[2]; [4]", "value": 191, "unit": "o/o"}, {"measurement": "CURES", "setting": "[2]; [4]", "value": "0/5"}, {"measurement": "o/o T/C", "setting": "[2]; [5]", "value": 249, "unit": "o/o"}, {"measurement": "CURES", "setting": "[2]; [5]", "value": "0/5"}, {"measurement": "MEAN SURVIVAL TIME", "setting": "[2]; [6]", "value": 20.0, "unit": "days"}, {"measurement": "o/o T/C", "setting": "[2]; [6]", "value": 286, "unit": "o/o"}, {"measurement": "CURES", "setting": "[2]; [6]", "value": "2/5*"}]}]}
